Measurements as given in US6794386B2, “β-amino acid compounds as integrin antagonists” (Bayer Aktiengesellschaft, priority 2000, dated 2004).

Target: T1, VLA-4 (Homo sapiens, UniProt P05556+P13612)
T1 construct: host or cells: Jurkat clone E6-1
Experiment: Adhesion of Jurkat cells to immobilized VCAM-1 (domains 1-3)
Format: cell-based
Settings: adhesion of CFSE-labeled Jurkat cells to recombinant human VCAM-1 (domains 1-3) coated plates; compounds as yielded by solid phase synthesis, purity about 40-90%; read-out: IC50
In short: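 CFSE-labelled Jurkat E6-1 cells in Tris buffer pH 7.4 with 2 mM MnCl2 were added to wells coated with insect-cell-expressed human VCAM-1 domains 1-3 (0.5 μg/ml coating solution); labelled cells were incubated for 30 min at 37 °C with the VLA-4 inhibitor.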

T1 sequence (P13612 34-1032): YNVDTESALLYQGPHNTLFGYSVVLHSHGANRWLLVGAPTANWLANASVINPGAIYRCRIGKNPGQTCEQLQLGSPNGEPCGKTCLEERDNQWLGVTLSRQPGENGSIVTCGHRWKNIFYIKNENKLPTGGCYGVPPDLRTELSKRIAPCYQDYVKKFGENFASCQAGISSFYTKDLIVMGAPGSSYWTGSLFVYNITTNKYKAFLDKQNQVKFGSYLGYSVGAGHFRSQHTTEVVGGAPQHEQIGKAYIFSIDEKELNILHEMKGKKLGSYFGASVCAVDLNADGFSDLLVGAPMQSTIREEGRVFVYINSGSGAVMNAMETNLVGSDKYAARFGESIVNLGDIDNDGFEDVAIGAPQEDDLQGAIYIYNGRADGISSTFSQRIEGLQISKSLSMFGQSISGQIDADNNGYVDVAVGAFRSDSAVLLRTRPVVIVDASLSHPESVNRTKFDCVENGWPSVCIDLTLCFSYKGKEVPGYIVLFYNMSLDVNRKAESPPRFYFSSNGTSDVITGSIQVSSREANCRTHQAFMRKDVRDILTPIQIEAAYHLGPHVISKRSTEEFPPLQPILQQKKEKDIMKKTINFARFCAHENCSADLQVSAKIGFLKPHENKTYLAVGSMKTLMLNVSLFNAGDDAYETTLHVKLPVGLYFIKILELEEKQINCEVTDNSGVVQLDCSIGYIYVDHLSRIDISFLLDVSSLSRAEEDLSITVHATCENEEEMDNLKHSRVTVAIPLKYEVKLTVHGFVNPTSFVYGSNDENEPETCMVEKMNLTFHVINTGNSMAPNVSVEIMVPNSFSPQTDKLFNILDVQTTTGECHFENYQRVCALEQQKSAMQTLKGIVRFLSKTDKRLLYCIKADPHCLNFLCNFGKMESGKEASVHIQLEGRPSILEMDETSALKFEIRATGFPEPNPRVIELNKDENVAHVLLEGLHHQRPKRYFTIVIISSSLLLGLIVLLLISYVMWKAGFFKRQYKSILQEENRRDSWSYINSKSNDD
T1 sequence (P05556 21-798): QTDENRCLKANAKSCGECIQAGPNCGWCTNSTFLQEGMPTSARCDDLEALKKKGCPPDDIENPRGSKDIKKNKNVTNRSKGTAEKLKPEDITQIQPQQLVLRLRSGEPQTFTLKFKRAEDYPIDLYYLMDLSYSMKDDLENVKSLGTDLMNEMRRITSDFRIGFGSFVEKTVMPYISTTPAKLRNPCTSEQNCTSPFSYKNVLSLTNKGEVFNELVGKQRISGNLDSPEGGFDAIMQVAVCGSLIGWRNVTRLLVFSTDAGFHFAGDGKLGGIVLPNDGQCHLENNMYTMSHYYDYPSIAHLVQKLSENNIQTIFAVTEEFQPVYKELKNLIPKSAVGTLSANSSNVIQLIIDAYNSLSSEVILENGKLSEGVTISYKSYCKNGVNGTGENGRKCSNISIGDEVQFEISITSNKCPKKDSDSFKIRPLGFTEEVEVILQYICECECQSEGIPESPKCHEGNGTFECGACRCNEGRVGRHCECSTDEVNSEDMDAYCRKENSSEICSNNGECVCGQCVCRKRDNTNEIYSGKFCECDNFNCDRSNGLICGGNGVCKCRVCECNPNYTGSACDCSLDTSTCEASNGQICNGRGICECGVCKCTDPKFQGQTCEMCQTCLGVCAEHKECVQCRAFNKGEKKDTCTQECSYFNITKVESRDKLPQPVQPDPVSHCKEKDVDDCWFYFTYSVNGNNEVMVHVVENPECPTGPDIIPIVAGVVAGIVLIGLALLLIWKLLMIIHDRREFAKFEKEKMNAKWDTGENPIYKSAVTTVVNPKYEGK

IC50, 500 to 2000 nM:
O=C(N[C@@H](Cc1ccc(NC(=O)N2CCc3ccccc3C2)cc1)C(=O)O)C1CCCN(c2ncnc(NCc3ccncc3)c2F)C1 (stereo partly shown) [Example 5.44]
CN(Cc1ccccc1)c1ncnc(N2CCCC(C(=O)N[C@@H](Cc3ccc(NC(=O)N4CCOCC4)cc3)C(=O)O)C2)c1F (stereo partly shown) [Example 5.45]
COCCN(C)c1ncnc(N2CCCC(C(=O)N[C@@H](Cc3ccc(NC(=O)N4CCN(c5ccccc5)CC4)cc3)C(=O)O)C2)c1F (stereo partly shown) [Example 5.46]
O=C(N[C@@H](Cc1ccc(NC(=O)N2CCOCC2)cc1)C(=O)O)C1CCCN(c2ncnc(NCc3ccccn3)c2F)C1 (stereo partly shown) [Example 5.47]
